Converted amounts (≈) assume the structure as drawn. The source made the active and inactive calls. No cut-off for these calls is given here.
Key:
Staphylococcus aureus [1] = assay: Antibacterial activity against methicillin-resistant Staphylococcus aureus ATCC 33591 infected in Balb/c mouse model of acute systemic infection assessed as reduction in bacterial count in liver at 10 mg/kg, ip measured after 5 days; format: functional, organism-based; conditions: time 5.0 day
Staphylococcus aureus [2] = assay: (§1) Antibacterial activity against methicillin-resistant Staphylococcus aureus ATCC 33591 infected in Balb/c mouse model of skin wound infection assessed as reduction in inflammatory cell infiltration in skin at 10 mg/kg, ip administered thrice at 1, 24 and 48 hrs post-infection measured after 14 days by H and E staining based analysis; format: functional, organism-based; conditions: time 14.0 day
Staphylococcus aureus [3] = assay: Antibacterial activity against methicillin-resistant Staphylococcus aureus ATCC 33591 infected in Balb/c mouse model of pneumonia infection assessed as reduction in bacterial load in lung at 10 mg/kg, ip administered thrice at 4, 8 and 12 hrs post-infection measured after 24 hrs post-infection in presence of polymyxin B; format: functional, organism-based; conditions: time 20.0 hrs
Staphylococcus aureus [4] = assay: Antibacterial activity against polymyxin B-resistant methicillin-resistant Staphylococcus aureus ATCC 33591 incubated for 18 to 24 hrs; format: functional; conditions: time 18-24 hrs
Staphylococcus aureus [5] = assay: Inhibition of gentamicin-induced drug resistance in methicillin-resistant Staphylococcus aureus ATCC 33591 at sub-MIC measured upto 15 passages; format: functional, organism-based
Staphylococcus aureus [6] = assay: Induction of drug resistance in methicillin-resistant Staphylococcus aureus ATCC 33591 at sub-MIC measured after 15 passages; format: functional, organism-based
Staphylococcus aureus [7] = assay: Antibacterial activity against methicillin-resistant Staphylococcus aureus ATCC 33591 infected in Balb/c mouse model of acute systemic infection assessed as reduction in inflammatory cell infiltration in lung at 10 mg/kg, ip measured after 5 days by H and E staining based analysis; format: functional, organism-based; conditions: time 5.0 day
[8] = Toxicity in Balb/c mouse assessed as survival rate at 80 mg/kg, ip measured after 7 days; format: organism-based; conditions: in vivo, time 7 day
[9] = Toxicity in Balb/c mouse assessed as body weight change at 20 to 80 mg/kg, ip measured after 7 days; format: organism-based; conditions: in vivo, 168 h, dose 20-80 mg/kg, time 7 day
Staphylococcus aureus [10] = assay: Antibacterial activity against Staphylococcus aureus ATCC 25923 incubated for 18 to 24 hrs by broth microdilution method; format: functional; conditions: time 18-24 hrs
Staphylococcus aureus [11] = assay: as §1, with “TNF-alpha activity” for “inflammatory cell infiltration”, “IHC” for “H and E staining based”; format: functional, organism-based; conditions: time 14.0 day
[12] = Toxicity in Balb/c mouse assessed as cell swelling in lung at 80 mg/kg, ip measured after 7 days by H and E staining based analysis; format: organism-based; conditions: in vivo, 168 h, time 7 day
Staphylococcus aureus [13] = assay: Synergistic bactericidal activity against persistent methicillin-resistant Staphylococcus aureus ATCC 33591 incubated for 18 to 24 hrs in presence of vancomycin by time-kill assay; format: functional, organism-based; conditions: time 18-24 hrs
Staphylococcus aureus [14] = assay: Synergistic antibacterial activity against methicillin-resistant Staphylococcus aureus ATCC 33591 assessed as fractional inhibitory concentration index upto 2 times MIC incubated for 18 to 24 hrs in presence of gentamicin by checkerboard assay; format: functional; conditions: time 18-24 hrs
Mus musculus = assay: In vivo inhibition of inflammation in Balb/c mouse model of acute systemic infection infected with methicillin-resistant Staphylococcus aureus ATCC 33591 assessed as reduction in TNF-alpha activity at 10 mg/kg, ip measured after 5 days; format: functional, organism-based; conditions: time 5.0 day
Staphylococcus aureus [15] = assay: as §1, with “IL-1beta activity” for “inflammatory cell infiltration”, “IHC” for “H and E staining based”; format: functional, organism-based; conditions: time 14.0 day
[16] = Toxicity in Balb/c mouse assessed as change in key organs appearance at 20 to 40 mg/kg, ip measured after 7 days; format: organism-based; conditions: in vivo, 168 h, dose 20-40 mg/kg, time 7 day
Staphylococcus aureus [17] = assay: Antibacterial activity against methicillin-resistant Staphylococcus aureus ATCC 33591 infected in Balb/c mouse model of acute systemic infection assessed as reduction in inflammatory cell infiltration in kidney at 10 mg/kg, ip measured after 5 days by H and E staining based analysis; format: functional, organism-based; conditions: time 5.0 day
Staphylococcus aureus [18] = assay: Induction of cytoplasmic membrane depolarization in methicillin-resistant Staphylococcus aureus ATCC 33591 incubated upto 20 mins by DiSC3-5 dye based analysis; format: functional, organism-based
Staphylococcus aureus [19] = assay: Antibacterial activity against methicillin-resistant Staphylococcus aureus ATCC 33591 incubated for 18 to 24 hrs in presence of 2 mg/ml of chymotrypsin by broth microdilution method; format: functional; conditions: time 18-24 hrs
Staphylococcus aureus [20] = assay: Induction of morphological changes in methicillin-resistant Staphylococcus aureus ATCC 33591 assessed as irregular atrophy at 2 times MIC incubated for 2 hrs by SEM analysis; format: functional, organism-based
Staphylococcus aureus [21] = assay: Induction of morphological changes in methicillin-resistant Staphylococcus aureus ATCC 33591 assessed as bacterial membrane folds at 2 times MIC incubated for 2 hrs by SEM analysis; format: functional, organism-based
[22] = Toxicity in Balb/c mouse assessed as survival rate at 20 mg/kg, ip measured after 7 days; format: organism-based; conditions: in vivo, time 7 day
Staphylococcus aureus [23] = assay: Induction of morphological changes in methicillin-resistant Staphylococcus aureus ATCC 33591 assessed as characteristic membrane rupture at 4 times MIC incubated for 2 hrs by SEM analysis; format: functional, organism-based
Staphylococcus aureus [24] = assay: Antibacterial activity against methicillin-resistant Staphylococcus aureus ATCC 33591 infected in Balb/c mouse model of skin wound infection assessed as reduction in bacterial load in skin at 10 mg/kg, ip administered thrice at 1, 24 and 48 hrs post-infection measured after 72 hrs post-infection; format: functional, organism-based; conditions: time 71.0 hrs
Staphylococcus aureus [25] = assay: as §1, with “in keratosis” for “in inflammatory cell infiltration”, “in wound surface” for “in skin”, “days in presence of polymyxin B” for “days”, “by IHC” for “by H and E staining based”; format: functional, organism-based; conditions: time 14.0 day
Staphylococcus aureus [26] = assay: Bactericidal activity against methicillin-resistant Staphylococcus aureus ATCC 33591 at 2 times MIC incubated for 6 hrs by time-kill assay relative to control; format: functional
Staphylococcus aureus [27] = assay: as §1, with “TNF-alpha activity” for “inflammatory cell infiltration”, “days in presence of polymyxin B” for “days”, “IHC” for “H and E staining based”; format: functional, organism-based; conditions: time 14.0 day
Staphylococcus aureus [28] = assay: Synergistic bactericidal activity against persistent methicillin-resistant Staphylococcus aureus ATCC 33591 at high concentration incubated for 18 to 24 hrs in presence of gentamycin by time-kill assay; format: functional, organism-based; conditions: time 18-24 hrs
Staphylococcus aureus [29] = assay: Antibacterial activity against methicillin-resistant Staphylococcus aureus ATCC 33591 infected in Balb/c mouse model of acute systemic infection assessed as reduction in bacterial count in lung at 10 mg/kg, ip measured after 5 days; format: functional, organism-based; conditions: time 5.0 day
[30] = Toxicity in Balb/c mouse assessed as spleen pigmentation at 80 mg/kg, ip measured after 7 days; format: organism-based; conditions: in vivo, 168 h, time 7 day

CCCCCCCCCCCC(=O)N[C@H](CCCNC(=N)N)C(=O)N[C@H](CCCNC(=N)N)C(=O)N[C@H](Cc1c[nH]c2ccccc12)C(=O)O
Activity (Staphylococcus aureus [1]): Active | Activity (Staphylococcus aureus [2]): Active | Activity (Staphylococcus aureus [3]): Active | MIC (Staphylococcus aureus [4]): 16 µM (≈ 11.2 µg/mL) | inhibition (Staphylococcus aureus [5]): Active | Activity (Staphylococcus aureus [6]): inactive | Activity (Staphylococcus aureus [7]): Active | survival at 168 h [8]: 75% | Activity [9]: Non-toxic | MIC (Staphylococcus aureus [10]): 4 µM (≈ 2.8 µg/mL) | Activity (Staphylococcus aureus [11]): Active | Activity [12]: Toxic | Activity (Staphylococcus aureus [13]): Dose-dependent-effect | fractional inhibitory concentration index (FICI) (Staphylococcus aureus [14]): 0.125 | inhibition (Mus musculus): Active | Activity (Staphylococcus aureus [15]): Active | Activity [16]: Non-toxic | Activity (Staphylococcus aureus [17]): Active | Activity (Staphylococcus aureus [18]): Dose-dependent-effect; Compound Activity Was Slightly Weaker Than Triton X-100 | MIC (Staphylococcus aureus [19]): 4 µM | Activity (Staphylococcus aureus [20]): Active | Activity (Staphylococcus aureus [21]): Active | survival at 168 h [22]: 62.5% | Activity (Staphylococcus aureus [23]): Active | Activity (Staphylococcus aureus [24]): Active | Activity (Staphylococcus aureus [25]): Active | Activity (Staphylococcus aureus [26]): 100% | Activity (Staphylococcus aureus [27]): Active | Activity (Staphylococcus aureus [28]): Active | Activity (Staphylococcus aureus [29]): Active | Activity [30]: Toxic

Source: ChEMBL document CHEMBL6114969, “Ultra-short lipopeptides containing d-amino acid exhibiting excellent stability and antibacterial activity against gram-positive bacteria” (Eur J Med Chem, 2025)
